Test results published in PMC10223062, “Discovery of Novel Thiophene/Hydrazones: In Vitro and In Silico Studies against Pancreatic Cancer” (Pharmaceutics, 2023).

Tests used:
HaCaT cell line = assay: Cell viability (cytotoxicity) in healthy cells, MTT assay; type: cell-based, human; settings: for IC50: Homo sapiens, HaCaT, MTT, 72 h, healthy keratinocytes, read-out: IC50 in 2D cultured HaCaT cell line; for Selectivity, cancer vs healthy cell line: MIA PaCa-2 vs healthy cell line (HaCaT)
Experimental: HaCaT human healthy keratinocyte cells (CRL-2404™) (ATCC, Manassas, VA, USA) were cultured in DMEM (10% FBS, v/v) (Gibco, Billings, MT, USA), respectively and supplemented with 1% antibiotics (10.000 μg/mL streptomycin and 10.000 units/mL penicillin) (Gibco, Billings, MT, USA) at 37 °C in a humidified atmosphere of 5% CO2. For the preliminary assessment of the cytotoxicity of selected potent compounds in healthy cells, HaCaT cells were seeded 2 × 10^5 cells/mL in 96-well plate and incubated for 24 h. The following day the 7a, 7d, and 7f compounds were applied similarly as in the MIA PaCa-2 cytotoxicity protocol between concentrations 0.62–100 µM for 72 h and then MTT was applied.

[1] = tested on: MIA PaCa-2 tumor spheroids; assay: 3D spheroid formation/growth assay; type: cell-based, human; design: Spheroid Diameter Day 0 / Spheroid Diameter Day 9: unit not given here; settings: for Spheroid Diameter Day 0: Day 0 (baseline); for Reduction of spheroid diameter: 9 days
Experimental: For the preliminary assessment of anticancer activity in a 2D cell culture system, an MIA PaCa-2 human pancreas epithelial carcinoma (CRL-1420™) cell line (ATCC, Manassas, VA, USA) was cultured in Dulbecco’s Modified Eagle Medium with 10% fetal bovine serum (FBS, v/v) (Gibco, Billings, MT, USA) and supplemented with 1% antibiotics (10,000 μg/mL streptomycin and 10,000 U/mL penicillin) (Gibco, Billings, MT, USA) at 37 °C in a humidified 5% CO2 atmosphere. For the in vitro modeling of the tumor microenvironment, compounds were also tested in a 3D spheroid test system. For this purpose, the MIA PaCa-2 human pancreas epithelial carcinoma (CRL-1420™) cell line and human dermal fibroblast cell line HDF (PCS-201-012) cells were used.
For 3D spheroid formation, the MIA PaCa-2 cells (PC cell line) and HDF cells were used according to the 3D Bioprinting method. To better simulate the tumor microenvironment, PC cells were mixed (1:1) with human fibroblasts. Briefly, the MIA PaCa-2 cells and human fibroblasts at 70–80% confluency were added to a 6-well plate and incubated with biocompatible NanoShuttle TM-PL (Bioprinting Kit, Greiner Bio-One, Germany) overnight at 37 °C in a humidified 5% CO2 atmosphere. After the nanoparticles were taken up by the cells, they were resuspended and seeded into an ultra-low attachment 96-well plate at a volume of 100 μL (2000 PC cells and 2000 human fibroblasts per well) volume. The plate was placed on a magnetic drive and incubated at 37 °C in a humidified 5% CO2 atmosphere until spheroids were formed. After two days of incubation, the spheroids were photographed using light microscopy (Carl Zeiss Primo Vert, Germany). Fresh medium containing 0.1, 1, 10, and 100 µM of tested compound was added to the wells. Photos were taken every 72 h, and the medium was replaced every 72 h. The effect of the tested compounds in 3D PC cell cultures was examined by measuring the size change of spheroids using ImageJ software (ImageJ 2.0 software, USA).

COX-2 = biological target: T1, COX-2 (Homo sapiens, UniProt P35354); assay: Fluorometric COX-2 inhibitor screening kit; settings: for COX-2 Percent of İnhibition: at 10 µM; for IC50: COX-2 IC50
T1 sequence (P35354 18-604): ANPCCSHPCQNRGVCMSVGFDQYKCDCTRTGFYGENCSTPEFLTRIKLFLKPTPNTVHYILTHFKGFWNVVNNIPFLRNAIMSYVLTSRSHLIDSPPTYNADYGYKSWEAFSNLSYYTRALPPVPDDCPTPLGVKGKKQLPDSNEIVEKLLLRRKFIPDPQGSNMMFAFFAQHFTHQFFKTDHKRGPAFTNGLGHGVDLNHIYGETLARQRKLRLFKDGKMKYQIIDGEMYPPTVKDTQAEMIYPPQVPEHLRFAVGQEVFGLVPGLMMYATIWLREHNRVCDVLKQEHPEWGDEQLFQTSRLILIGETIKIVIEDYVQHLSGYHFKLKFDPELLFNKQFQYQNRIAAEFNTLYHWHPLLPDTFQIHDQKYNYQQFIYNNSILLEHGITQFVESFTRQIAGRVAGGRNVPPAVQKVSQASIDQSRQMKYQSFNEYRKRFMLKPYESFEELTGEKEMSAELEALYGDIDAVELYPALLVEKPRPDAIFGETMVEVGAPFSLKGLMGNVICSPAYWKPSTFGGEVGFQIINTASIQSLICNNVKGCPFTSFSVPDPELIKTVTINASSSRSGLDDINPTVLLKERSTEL
Experimental: COX-1 and COX-2 inhibitory activities were tested using fluorometric COX-1 and COX-2 inhibitor screening kits (Abcam, United Kingdom), and the 5-LOX inhibitory activity was tested using a fluorometric 5-LOX inhibitor screening kit (MyBioSource, USA). These assays are based on the fluorometric detection of Prostaglandin G2 (a product generated by the COX enzyme) or on the fluorometric detection of the intermediate generated by the 5-LOX enzyme.
For the determination of COX-1 and COX-2 inhibitory activity, the tested compounds were dissolved in dimethyl sulfoxide (DMSO, 5 mM stock solution) and then diluted with the same solvent to obtain the test solutions. The test solutions were further diluted 5× with COX Assay Buffer (2 µL of test solution: 8 µL COX Assay Buffer). […] Solvent Control (SC) was prepared by adding 2 µL DMSO and 8 µL COX Assay Buffer, while Sample (S) and Enzyme Control (EC) were prepared by adding 10 µL of diluted test solution and COX Assay Buffer, respectively, into assigned wells.
EC, SC, IC, and all test solutions were analyzed in triplicate.

| COX-2 Percent of İnhibition (COX-2) | IC50 (COX-2) | SMILES | IC50 (HaCaT cell line) | Selectivity, cancer vs healthy cell line (HaCaT cell line) | Spheroid Diameter Day 0 ([1]; 0.1 µM group) | Spheroid Diameter Day 9 ([1]; 0.1 µM) | Spheroid Diameter Day 0 ([1]; 1 µM group) | Spheroid Diameter Day 9 ([1]; 1 µM) | Spheroid Diameter Day 0 ([1]; 10 µM group) | Spheroid Diameter Day 9 ([1]; 10 µM) | Reduction in spheroid size ([1]; 10 µM, after 9 days of treatment) | Spheroid Diameter Day 0 ([1]; 100 µM group) | Reduction of spheroid diameter ([1]; 100 µM) | Spheroid Diameter Day 9 ([1]; 100 µM) | Spheroid state at the end of the 9 days ([1]; 10–100 µM) | Spheroid state at the end of the 9 days ([1]; 100 µM) |
| --- | --- | --- | --- | --- | --- | --- | --- | --- | --- | --- | --- | --- | --- | --- | --- | --- |
| 13.57 ± 0.38% |  | O=C(N/N=C/c1ccccc1O)c1cc(-c2ccccc2)c(-c2ccccc2)s1 [7a, N’-[(E)-(2-hydroxyphenyl)methylidene]-4,5-diphenylthiophene-2-carbohydrazide] | 0.88 ± 0.06 µM | cytotoxic effects on healthy cell line too | 1156.5 ± 14.2 | 5050.5 ± 36.9 | 1186.5 ± 91.9 | 1755.0 ± 58.9 | 1176.0 ± 31.1 | 636.0 ± 12.7 | 46% | 1183.0 ± 36.1 | 65% | 432.0 ± 17.4 |  |  |
| 51.97 ± 2.51% | 10.1 ± 0.25 µM | O=C(N/N=C/c1ccc(O)cc1)c1cc(-c2ccccc2)c(-c2ccccc2)s1 [7c, N’-[(E)-(4-hydroxyphenyl)methylidene]-4,5-diphenylthiophene-2-carbohydrazide] |  |  | 1118.0 ± 31.1 | 5415.0 ± 12.7 | 1168.0 ± 52.7 | 6174.0 ± 106.1 | 989.5 ± 54.1 | 3729.5 ± 12.8 |  | 940.5 ± 33.9 |  | 2207.0 ± 47.1 |  |  |
| 16.74 ± 3.36% |  | COc1ccccc1/C=N/NC(=O)c1cc(-c2ccccc2)c(-c2ccccc2)s1 [7d, N’-[(E)-(2-methoxyphenyl)methylidene]-4,5-diphenylthiophene-2-carbohydrazide] | > 100 µM | showed selectivity | 1127.5 ± 36.1 | 4911.0 ± 117.4 | 1211.0 ± 17.9 | 6312.5 ± 24.8 | 1297.5 ± 55.1 | 1708.0 ± 87.1 |  | 974.0 ± 32.2 | 55% | 445.7 ± 64.1 |  |  |
| 49.41±1.12% | 13.9 ± 0.76 µM | COc1cc(/C=N/NC(=O)c2cc(-c3ccccc3)c(-c3ccccc3)s2)ccc1O [7e, N’-[(E)-(3-methoxy-4-hydroxyphenyl)methylidene]-4,5-diphenylthiophene-2-carbohydrazide] |  |  | 1181.5 ± 33.2 | 5607.5 ± 44.55 | 1153.0 ± 73.5 | 6396.0 ± 16.1 |  |  |  |  |  |  | disintegrated |  |
| 38.41 ± 0.85% | 39 ± 3.41 µM | COc1ccc(/C=N/NC(=O)c2cc(-c3ccccc3)c(-c3ccccc3)s2)cc1O [7f, N’-[(E)-(3-hydroxy-4-methoxyphenyl)methylidene]-4,5-diphenylthiophene-2-carbohydrazide] | 0.67 ± 0.13 µM | cytotoxic effects on healthy cell line too | 1110.0 ± 113.1 | 5823.0 ± 39.8 | 1108.0 ± 17.6 | 4336.0 ± 48.1 | 1215.0 ± 12.7 | 2806.0 ± 31.5 |  |  |  |  |  | disintegrated |
